The record followed here is US20210260022A1, “SYNERGY FOR INCREASING ENERGY EXPENDITURE AND INSULIN SENSITIVITY” (The Board of Supervisors of Louisiana State University and …, priority 2018, published 2021).

Type in all cases: cell-based
Assay [1] relates to human adipocytes. In words: mRNA expression (Taqman RT-PCR) in differentiated human adipocytes after 7 day treatment. Here is the method:
Carotenoids tested were β-carotene (βCar), Lycopene (lyco) and lutein. […] In our preclinical lab at PBRC, human subcutaneous adipocyte cell cultures were treated with naringenin at a concentration of 10 μM for seven days. […] Differentiated human adipocytes were treated with 10 μM naringenin for 7 days. Gene expression was analyzed using Taqman RT-PCR and values are expressed as fold increase over untreated controls (n=5). […] Activated AMPK induces glucose consumption and fat oxidation in adipose tissue. Carotenoids are vitamin A precursors found in foods and their consumption can cause reduction in adiposity and insulin resistance in pediatric clinical trials (Canas et al., 2012; Canas et al., 2017). After ingestion, they are metabolized into retinoid ligands for retinoic acid receptors (RAR) and retinoic X receptors (RXR) which are localized in the cell nucleus. RXRs form heterodimers with PPARs in transcriptional complexes known to target genes for energy expenditure and fat oxidation (Bonet et al., 2015).

The test system of assay [2] is human adipocytes. In words: Western blotting of protein levels in treated human adipocytes. Here is the method:
Referring to FIG. 2, human adipocyte cultures were treated with naringenin for 0, 3 or 7d. Total protein was isolated and analyzed by Western Blotting. […] TGX SDS-PAGE gels (7.5%TM, BioRad) were used to separate 50 μg of solubilized protein per sample. Following transfer, nitrocellulose membranes were probed overnight at 4° C. with primary monoclonal antibodies against adiponectin, NAMPT, and PPARγ (Santa Cruz), PGC-1α monoclonal (4C1.3, EMDmillipore) and β-Actin (A5316, Sigma). HRP-linked anti-rabbit (12-348, Sigma) and anti-mouse (A[…], Sigma) were used to detect specific antibody-antigen complexes. Proteins were visualized by chemiluminescence (Western Lightning Plus-ECL, PerkinElmer, Waltham, Mass.). Bands were quantified using ImageJ software and values shown are normalized to β-actin.
Background: In western blotting, separated proteins are transferred to a membrane and probed.

The subject of assay [3] is human adipocytes. In words: qRT-PCR in human adipocytes (hADSC) treated two days with naringenin and inhibitors. Conditions: for CPT1β mRNA expression compared to control / UCP1 mRNA expression compared to control: naringenin 30 μM (whole orange extract), two days. Here is the method: Human white adipocytes were treated for 2d with naringenin in the presence of inhibitors of metabolic pathways to determine the mechanism of action for stimulating fat oxidation and thermogenic energy expenditure.
Naringenin increased UCP1 and CPT1β mRNA induction compared to control (p<0.001). PPARα and PPARγ inhibition reduced UCP1 and CPT1β mRNA expression (p<0.001). Each experiment was conducted with three biological replicates and four technical replicates.
The whole orange extract was dissolved in DMSO at 15 mM (based on 28% naringenin content) and added to cells at a dilution of 1:500 to achieve a final concentration of 30 μM. The inhibitors added to the naringenin-treated cells included: peroxisome proliferator-activated receptor alpha (PPARα) antagonist GW6471 and peroxisome proliferator-activated receptor gamma (PPARγ) antagonist GW9662 (Cayman Chemical, Ann Arbor, Mich.) at 10 μM concentration, protein kinase A (PKA) inhibitor H89 (Millipore Sigma, Burlington, Mass.) at 20 μM concentration, and protein kinase G (PKG) inhibitor […] (Biolog Life Science Institute, AXXORA, LLC, Farmingdale, N.Y.) at 50 μM concentration. GW6471 and GW9662 were dissolved in DMSO at 1000×, H89 was dissolved in PBS at 500×, and Rp-8-pCPT-cGMPS was dissolved in PBS at 100× prior to dilution in cell culture medium. Following a two-day treatment, the cells were harvested with Trizol reagent. RNeasy Mini Kit (Qiagen, Germantown, Md.) was used to isolate total RNA following manufacturer's protocol. The expression of UCP1, CPT1β, and GLUT4 was quantified with one-step reverse transcriptase PCR using the reverse PCR primer to prime cDNA synthesis as previously described.^6

Consider `O=C1C[C@@H](c2ccc(O)cc2)Oc2cc(O)cc(O)c21` [naringenin], for which the “expression of UCP1, GLUT4 and CPT-1 genes” value with human adipocytes [1] (10 μM for seven days, human subcutaneous adipocytes) is “Significant increases”. Moreover, in the assay with human adipocytes [1] (naringenin at 10 micromolar), the “Adiponectin RNA expression and adiponectin protein levels” value is listed as “went up”; the “RNA and protein expression of uncoupling protein-1, adipose tissue glyceride lipase, carnitine palmitoyl transferase-1, glucose transporter-4, ChREBP alpha and beta” value was “increasing RNA and protein expression”. The “protein levels of UCP1, GLUT4, and ChREBP” value in the assay with human adipocytes [2] (10 μM naringenin for 7 days) is reported as “Corresponding increases”. In addition, the “AMPK activation (phospho-AMPK)” value in the assay with human adipocytes [2] (naringenin 0, 3 or 7d) is “activates AMPK”. In the assay with human adipocytes [3], the “CPT1β mRNA expression compared to control” value is listed as “more than three-fold” and the “UCP1 mRNA expression compared to control” value is recorded as “more than three-fold”. Moreover, in the assay with human adipocytes [3] (listed as Naringenin), the “CPT1β mRNA expression compared to control” value is “increased” and the “UCP1 mRNA expression compared to control” value is given as “increased”. Further, in the assay with human adipocytes [3] (naringenin, two-day period), the “GLUT4 mRNA expression” value is recorded as “no increase”.
